Drawing on PMC7664879, “Discovery of 12O—A Novel Oral Multi-Kinase Inhibitor for the Treatment of Solid Tumor” (Molecules, 2020), this text covers IC50 and inhibition for one compound.

The test system of experiment [1] is SKOV3. Description: CCK-8 cell growth inhibition, SKOV3. The format is cell-based, human. Particulars: Homo sapiens, SK-OV-3; CCK-8 assay, 72-h incubation; read-out: Cell Lines IC50 SKOV3. Here is the method: (§1) In vitro anticancer screening of all newly synthesized compounds towards human solid tumor cells, cervical (SiHa) and ovarian (SKOV3) cancer cell lines, was carried out by standard CCK-8 assay with cisplatin as the positive control, as cisplatin is one of the most used chemotherapy drugs. […] The compound was further evaluated in a dose response study against a panel of solid tumor cells, including cervical cancer cell lines (SiHa and HeLa), ovarian cancer cell lines (SKOV3 and OVCAR-5), breast cancer cell lines (4T1 and MCF-7), lung cancer cell lines (A549 and H460) to test cytotoxic activity. The IC50 values were summarized in Table 2, including the cytotoxic activity of the cisplatin used as reference compound.
The viability of cells as determined using the CCK8 assay method. Cells were seeded (2000–3000 cells per well) in 96-well plates. After incubation for 24 h in serum-containing media, the cells were treated with drugs at different concentrations diluted with culture medium for 72 h at 37 °C with a 5% CO2 atmosphere. Then, 10 μL CCK8 regent (Promega, WI) was added to each well, and the plates were incubated for 1–4 h at 37 °C. Finally, absorbance values of test wells (AS), control wells (AC) and blank wells (Ab) at 450 nm were read using the Microplate Reader (Promega, WI). Inhibition ratios were calculated as follows: [(AC − AS)/ (AC−Ab)] × 100%. IC50 values were calculated using GraphPad software.

The subject of experiment [2] is OVCAR-5. Kind of experiment: CCK-8 cell growth inhibition, OVCAR-5. The format is cell-based, human. The settings on record: Homo sapiens, OVCAR-5; ovarian cancer; CCK-8 assay, 72-h incubation. Here is the method:
as §1
The viability of cells as determined using the CCK8 assay method. Cells were seeded (2000–3000 cells per well) in 96-well plates. After incubation for 24 h in serum-containing media, the cells were treated with drugs at different concentrations diluted with culture medium for 72 h at 37 °C with a 5% CO2 atmosphere. […] Finally, absorbance values of test wells (AS), control wells (AC) and blank wells (Ab) at 450 nm were read using the Microplate Reader (Promega, WI). Inhibition ratios were calculated as follows: [(AC − AS)/ (AC−Ab)] × 100%. IC50 values were calculated using GraphPad software.
On the technique in general: Tetrazolium assays rely on reduction of a dye to a coloured formazan, in cell work by metabolically active cells.

In experiment [3] the target is T1, CDK2/cyclinA(h) (Homo sapiens, UniProt P24941).
T1 construct: purchased Eurofins (KinaseProfiler service)
Description: Kinase inhibition assay (Eurofins KinaseProfiler). In kind it is biochemical. Particulars: ATP at Km. Here is the method: (§2) Kinase inhibition profiles were determined using KinaseProfiler services provided by Eurofins, and ATP concentrations used are the Km of corresponding kinases.
(§3) CDK1/cyclinB (h) (CDK2/cyclinA (h), CDK3/cyclinE (h), CDK4/CyclinD(h), CDK5/p25 (h), CDK6/cyclinD3 (h)) were incubated with 8 mM MOPS pH 7.0, 0.2 mM EDTA, 0.1 mg/mL histone H1, 10 mM MgAcetate and [gamma-33P]-ATP (specific activity and concentration as required).
(§4) All the reactions above were initiated by the addition of the Mg/ATP mix. After incubation for 40 min at room temperature, the reaction was stopped by the addition of phosphoric acid to a concentration of 0.5%. An amount of 10 µL of the reaction was then spotted onto a P30 filtermat and washed four times for 4 min in 0.425% phosphoric acid and once in methanol prior to drying and scintillation counting.

In experiment [4] the target is T2, CDK3/cyclinE(h) (Homo sapiens, UniProt Q00526).
T2 construct: purchased Eurofins (KinaseProfiler service)
T2 sequence (Q00526 whole entry): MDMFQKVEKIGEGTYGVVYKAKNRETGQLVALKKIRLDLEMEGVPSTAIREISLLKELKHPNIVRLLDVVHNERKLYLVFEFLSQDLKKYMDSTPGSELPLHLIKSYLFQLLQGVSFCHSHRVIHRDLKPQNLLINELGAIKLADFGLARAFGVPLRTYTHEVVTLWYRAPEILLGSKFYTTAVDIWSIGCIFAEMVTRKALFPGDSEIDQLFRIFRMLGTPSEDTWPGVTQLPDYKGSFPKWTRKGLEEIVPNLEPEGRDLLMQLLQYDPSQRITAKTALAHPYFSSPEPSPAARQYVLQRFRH
T2 sequence (P24864 whole entry partner): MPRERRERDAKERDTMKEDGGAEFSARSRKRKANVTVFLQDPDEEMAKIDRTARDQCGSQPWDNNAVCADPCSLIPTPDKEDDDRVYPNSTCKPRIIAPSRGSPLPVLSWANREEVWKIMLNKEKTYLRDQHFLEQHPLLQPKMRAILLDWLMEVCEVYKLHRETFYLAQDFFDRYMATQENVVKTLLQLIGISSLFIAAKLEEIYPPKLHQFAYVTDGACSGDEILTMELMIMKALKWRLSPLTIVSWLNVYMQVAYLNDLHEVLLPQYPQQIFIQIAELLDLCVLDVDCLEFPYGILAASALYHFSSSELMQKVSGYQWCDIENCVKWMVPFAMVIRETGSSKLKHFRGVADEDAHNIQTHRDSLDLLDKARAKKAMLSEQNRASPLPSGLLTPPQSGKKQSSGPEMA
Kind of experiment: Kinase inhibition assay (Eurofins KinaseProfiler). In kind it is biochemical. The settings on record: ATP at Km. Here is the method: as §2, §3, §4

The target of experiment [5] is T3, KDR (VEGFR2) (Homo sapiens, UniProt P35968).
T3 construct: purchased Eurofins (KinaseProfiler service)
T3 sequence (P35968 20-1356): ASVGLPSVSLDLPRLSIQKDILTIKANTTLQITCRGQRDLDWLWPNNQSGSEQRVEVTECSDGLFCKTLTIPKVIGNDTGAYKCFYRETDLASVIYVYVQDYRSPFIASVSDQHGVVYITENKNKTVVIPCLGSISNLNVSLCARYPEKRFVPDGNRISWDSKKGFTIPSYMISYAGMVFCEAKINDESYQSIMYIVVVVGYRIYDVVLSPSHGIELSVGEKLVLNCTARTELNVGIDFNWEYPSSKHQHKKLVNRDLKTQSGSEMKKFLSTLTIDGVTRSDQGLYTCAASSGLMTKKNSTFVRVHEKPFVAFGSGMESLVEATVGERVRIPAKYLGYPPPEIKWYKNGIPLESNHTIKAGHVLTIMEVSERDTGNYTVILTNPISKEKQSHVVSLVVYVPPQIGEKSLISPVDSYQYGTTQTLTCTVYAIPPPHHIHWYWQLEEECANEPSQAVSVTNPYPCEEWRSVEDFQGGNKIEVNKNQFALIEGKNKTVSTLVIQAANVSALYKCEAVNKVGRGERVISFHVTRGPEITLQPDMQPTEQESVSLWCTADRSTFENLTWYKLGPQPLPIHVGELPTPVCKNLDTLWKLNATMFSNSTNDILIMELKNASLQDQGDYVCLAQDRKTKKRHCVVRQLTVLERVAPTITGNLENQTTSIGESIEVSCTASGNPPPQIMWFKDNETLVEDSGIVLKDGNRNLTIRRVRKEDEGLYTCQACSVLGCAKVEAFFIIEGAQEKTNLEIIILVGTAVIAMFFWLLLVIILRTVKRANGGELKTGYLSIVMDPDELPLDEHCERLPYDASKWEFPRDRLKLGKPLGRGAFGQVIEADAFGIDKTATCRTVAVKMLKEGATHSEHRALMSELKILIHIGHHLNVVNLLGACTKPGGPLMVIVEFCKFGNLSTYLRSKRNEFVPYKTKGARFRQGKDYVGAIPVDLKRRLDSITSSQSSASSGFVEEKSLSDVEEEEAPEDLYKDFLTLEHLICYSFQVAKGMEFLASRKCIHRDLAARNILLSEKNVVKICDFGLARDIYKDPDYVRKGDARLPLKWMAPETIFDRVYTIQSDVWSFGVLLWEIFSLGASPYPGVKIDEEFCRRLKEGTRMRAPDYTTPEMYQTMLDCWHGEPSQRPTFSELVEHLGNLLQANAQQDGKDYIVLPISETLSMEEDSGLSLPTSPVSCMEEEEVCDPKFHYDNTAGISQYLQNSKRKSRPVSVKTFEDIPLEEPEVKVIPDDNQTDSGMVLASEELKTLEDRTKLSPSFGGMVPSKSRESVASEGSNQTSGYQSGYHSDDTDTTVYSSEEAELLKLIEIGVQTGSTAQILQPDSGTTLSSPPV
Description: Kinase inhibition assay (Eurofins KinaseProfiler). The format is biochemical. The settings on record: ATP at Km. Here is the method:
as §2
KDR (h) was incubated with 8 mM MOPS pH 7.0, 0.2 mM EDTA, 0.33 mg/mL myelin basic protein, 10 mM MgAcetate and [gamma-33P]-ATP.
as §4

The target in experiment [6] is T4, FGFR1(h) (Homo sapiens, UniProt P11362).
T4 construct: purchased Eurofins (KinaseProfiler service)
T4 sequence (P11362 22-822): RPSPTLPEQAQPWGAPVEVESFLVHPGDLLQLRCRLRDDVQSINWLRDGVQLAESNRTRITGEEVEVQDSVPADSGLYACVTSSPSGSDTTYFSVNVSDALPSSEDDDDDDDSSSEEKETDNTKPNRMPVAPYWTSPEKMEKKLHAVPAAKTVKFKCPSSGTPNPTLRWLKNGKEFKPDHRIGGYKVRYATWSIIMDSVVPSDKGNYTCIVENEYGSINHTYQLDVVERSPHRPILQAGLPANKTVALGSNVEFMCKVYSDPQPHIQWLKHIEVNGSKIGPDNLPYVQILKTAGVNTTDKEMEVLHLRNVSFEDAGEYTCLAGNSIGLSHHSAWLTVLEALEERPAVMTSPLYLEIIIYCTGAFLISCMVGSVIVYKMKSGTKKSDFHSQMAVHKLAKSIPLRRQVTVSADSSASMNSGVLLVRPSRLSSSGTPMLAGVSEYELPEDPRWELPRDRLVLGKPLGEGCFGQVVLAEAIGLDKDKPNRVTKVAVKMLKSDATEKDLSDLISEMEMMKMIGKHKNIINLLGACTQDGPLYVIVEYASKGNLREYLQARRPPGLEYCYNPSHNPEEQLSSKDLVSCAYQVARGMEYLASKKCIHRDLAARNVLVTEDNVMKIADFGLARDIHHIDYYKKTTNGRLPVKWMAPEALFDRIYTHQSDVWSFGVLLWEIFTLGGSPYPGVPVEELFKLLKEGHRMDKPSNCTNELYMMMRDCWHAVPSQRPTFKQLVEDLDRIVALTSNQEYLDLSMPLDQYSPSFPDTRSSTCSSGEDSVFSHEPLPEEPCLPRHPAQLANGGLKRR
Kind of experiment: Kinase inhibition assay (Eurofins KinaseProfiler). The settings on record: ATP at Km. In kind it is biochemical. Here is the method:
as §2
FGFR1 (h) was incubated with 8 mM MOPS pH 7.0, 0.2 mM EDTA, 250 uM KKKSPGEYVNIEFG, 10 mM MgAcetate and [gamma-33P]-ATP.
as §4

What is called IC50 is the concentration at which inhibition is half-maximal. A word on the inhibition: it is the relative decrease from the control value, in per cent. As to `CC(C)n1nnc2ccc(-c3nc(Nc4ccc(CNC(=O)C5(C(=O)Nc6ccccc6)CC5)cc4)ncc3F)cc21` [12O], the IC50 in experiment [1] is 29 nM; in experiment [2], 52 nM; in experiment [3], 5 nM. In addition, the inhibition at 1 µM in experiment [3] (1 µM) is 99%; in experiment [4], 86%; in experiment [5], 81%; in experiment [6], -23%.
